Test results taken from patent US4843062A, “N-acyl-N-napthoylglycines as aldose reductase inhibitors” (American Home Products Corporation, priority 1987, dated 1989).
Where two headings read alike, the source gives them in different places. Blank lines part the entries; values can stand above or below the compound they belong to.

Columns and labels:
aldose reductase = target: T1, aldose reductase (Bos taurus, UniProt P16116); assay: Aldose reductase inhibition in vitro (enzyme preparation from bovine lens, modified Hayman and Kinoshita procedure); assay type: biochemical; conditions: for inhibition at 10 µM / inhibition at 1 µM: read-out: % Inhibition IN VITRO; for inhibition at 0.1 µM / % Inhibition IN VITRO: 10^-7 M
T1 construct: preparation of the enzyme from bovine lens; from tissue; host or cells: bovine lens
Method: (§1) Only two minor reagent changes were made: (a) The rinsing mixture was an aqueous 5% (w/v) trichloroacetic acid solution and (b) the stock solution was prepared by dissolving 25 mg of dulcitol in 100 mL of an aqueous trichloroacetic acid solution. [N.B.: For each experiment the average value found in the tissue from rats fed the glucose diet was subtracted from the individual values found in the corresponding tissue in galactose-fed rats to obtain the amount of polyol accumulated.] […] In the present case the procedure of Hayman and Kinoshita was modified in that the final chromatography step was omitted in the preparation of the enzyme from bovine lens.

[1] = tested on: lens (galactitol accumulation); assay: Galactitol (dulcitol) accumulation in lens of galactosemic rats; assay type: in vivo, rat (male, Sprague-Dawley); conditions: four days
Text: (§2) The aldose reductase inhibiting property of the compounds of this invention and the utilization of the compounds in preventing, diminishing and alleviating diabetic complications are demonstrable in experiments using galactosemic rats, see Dvornik et al, Science, 182, 1146 (1973). Such experiments are exemplified hereinbelow after the listing of the following general comments pertaining to these experiments.
(§3) (a) Four or more groups of six male rats, 50-70 g, Sprague-Dawley strain, were used. The first group, the control group, was fed a mixture of laboratory chow (rodent Laboratory Chow, Purina) and glucose at 20% (w/w %) concentration. The untreated galactosemic group and the drug-treated groups were fed a similar diet in which galactose is substituted for glucose. The test compound was either admixed to the diet or administered by gavage. In experiments involving compound administration in the diet, the average dose administered was calculated from the actual food intake of the animals in each group. The concentration of galactose in the diet of the treated groups was the same as that for the untreated galactosemic group.
(§4) (b) After four days, the animals were killed by decapitation. The eyeballs were removed and punctured with a razor blade; the freed lenses were rolled gently on filter paper and weighed. The sciatic nerves were dissected as completely as possible and weighed. Both tissues when frozen can be kept up to two weeks before being analyzed for galactitol.
(c) The polyol determination was performed by a modification of the procedure of M. Kraml and L. Cosyns, Clin. Biochem., 2,373 (1969). Only two minor reagent changes were made: (a) The rinsing mixture was an aqueous 5% (w/v) trichloroacetic acid solution and (b) the stock solution was prepared by dissolving 25 mg of dulcitol in 100 mL of an aqueous trichloroacetic acid solution. [N.B.: For each experiment the average value found in the tissue from rats fed the glucose diet was subtracted from the individual values found in the corresponding tissue in galactose-fed rats to obtain the amount of polyol accumulated.] The aldose reductase inhibiting effects of the compounds of formula (I) were also tested by employing an in vitro testing procedure similar to that described by S. Hayman and J. H. Kinoshita, J. Biol. Chem., 240,877 (1965). In the present case the procedure of Hayman and Kinoshita was modified in that the final chromatography step was omitted in the preparation of the enzyme from bovine lens.
(§5) The figures under L, N, and D represent the percentage decrease of galactitol accumulation in the tissues of the lens, sciatic nerve, and diaphragm, respectively, for treated rats as compared to untreated rats.

[2] = tested on: sciatic nerve (galactitol accumulation); assay: Galactitol (dulcitol) accumulation in sciatic nerve of galactosemic rats; assay type: in vivo, rat (male, Sprague-Dawley); conditions: four days
Text: (§6) Such experiments are exemplified hereinbelow after the listing of the following general comments pertaining to these experiments.
as §3, with “The untreated galactosemic group and the drug-treated groups were fed a similar diet in which galactose is substituted for glucose.” left out
as §4
as §1, with “(c) The polyol determination was performed by a modification of the procedure of M. Kraml and L. Cosyns, Clin. Biochem., 2,373 (1969). Only” for “Only”
as §5

[3] = tested on: diaphragm (galactitol accumulation); assay: Galactitol (dulcitol) accumulation in diaphragm of galactosemic rats; assay type: in vivo, rat (male, Sprague-Dawley); conditions: four days
Text: as §6
as §3, with “The untreated galactosemic group and the drug-treated groups were fed a similar diet in which galactose is substituted for glucose.” left out
as §1, with “(c) The polyol determination was performed by a modification of the procedure of M. Kraml and L. Cosyns, Clin. Biochem., 2,373 (1969). Only” for “Only”
as §5

rats fed galactose = assay: Galactosemic rat experiments; assay type: in vivo, rat (male, Sprague-Dawley)
Text: as §2, §3
(b) After four days, the animals were killed by decapitation. […] Both tissues when frozen can be kept up to two weeks before being analyzed for galactitol. […]

inhibition at 10 µM (aldose reductase; 10^-5 M): 90% | inhibition at 1 µM (aldose reductase; 10^-6 M): 64% | inhibition at 0.1 µM (aldose reductase): 18%
Compound: COc1ccc2c(C(=O)N(CC(=O)O)C(=O)OCC(C)(C)C)cccc2c1C(F)(F)F [Example 5]
% Lowering dulcitol accumulation IN VIVO (%)L ([1]; 105 mg/kg): N.S. | % Lowering dulcitol accumulation IN VIVO (%)N ([2]; 105 mg/kg): N.S. | % Lowering dulcitol accumulation IN VIVO (%)D ([3]; 105 mg/kg): N.S.

inhibition at 10 µM (aldose reductase; 10^-5 M): 95% | inhibition at 1 µM (aldose reductase; 10^-6 M): 89% | inhibition at 0.1 µM (aldose reductase): 49%
Compound: COc1ccc2c(C(=O)N(CC(=O)O)C(=O)OCc3ccc(Cl)c([N+](=O)[O-])c3)cccc2c1C(F)(F)F [Example 7]
% Lowering dulcitol accumulation IN VIVO (%)L ([1]; 107 mg/kg): N.S. | % Lowering dulcitol accumulation IN VIVO (%)N ([2]; 107 mg/kg): N.S. | % Lowering dulcitol accumulation IN VIVO (%)D ([3]; 107 mg/kg): N.S.

inhibition at 10 µM (aldose reductase; 10^-5 M): 90% | inhibition at 1 µM (aldose reductase; 10^-6 M): 62% | inhibition at 0.1 µM (aldose reductase): 15%
Compound: COc1ccc2c(C(=O)N(CC(=O)O)C(=O)c3ccccc3)cccc2c1C(F)(F)F [Example 10, N-Benzoyl-N-[[6-methoxy-5-(trifluoromethyl)-1-naphthalenyl]carbonyl]glycine]
% Lowering dulcitol accumulation IN VIVO (%)L ([1]; 50 mg/kg): N.S. | % Lowering dulcitol accumulation IN VIVO (%)N ([2]; 50 mg/kg): N.S. | % Lowering dulcitol accumulation IN VIVO (%)D ([3]; 50 mg/kg): N.S.

inhibition at 10 µM (aldose reductase; 10^-5 M): 22% | inhibition at 1 µM (aldose reductase; 10^-6 M): 3% | % Inhibition IN VITRO (aldose reductase): N.S.
Compound: COc1ccc2c(C(=O)N(CC(=O)O)C(=O)N(C)C)cccc2c1C(F)(F)F [Example 11, N-[(Dimethylamino)carbonyl]-N-[[6-methoxy-5-(trifluoromethyl)-1-naphthalenyl]carbonyl]glycine]

inhibition at 10 µM (aldose reductase; 10^-5 M): 85% | inhibition at 1 µM (aldose reductase; 10^-6 M): 54% | inhibition at 0.1 µM (aldose reductase): 10%
Compound: COC(=O)N(CC(=O)O)C(=O)c1cccc2c(Br)cccc12 [Example 12]
% Lowering dulcitol accumulation IN VIVO (%)L ([1]; 102 mg/kg): N.S. | % Lowering dulcitol accumulation IN VIVO (%)N ([2]; 102 mg/kg): N.S.

inhibition at 10 µM (aldose reductase; 10^-5 M): 87% | inhibition at 1 µM (aldose reductase; 10^-6 M): 57% | inhibition at 0.1 µM (aldose reductase): 12%
Compound: O=C(O)CN(C(=O)OCc1ccccc1)C(=O)c1cccc2c(Br)cccc12 [Example 13]

inhibition at 10 µM (aldose reductase; 10^-5 M): 90% | inhibition at 1 µM (aldose reductase; 10^-6 M): 73% | inhibition at 0.1 µM (aldose reductase): 22%
Compound: O=CN(CC(=O)O)C(=O)c1cccc2c(Br)cccc12 [Example 14]
% Lowering dulcitol accumulation IN VIVO (%)L ([1]; 104 mg/kg): N.S. | % Lowering dulcitol accumulation IN VIVO (%)N ([2]; 104 mg/kg): N.S

inhibition at 10 µM (aldose reductase; 10^-5 M): 82% | inhibition at 1 µM (aldose reductase; 10^-6 M): 41% | inhibition at 0.1 µM (aldose reductase): 7%
Compound: CC(=O)N(CC(=O)O)C(=O)c1cccc2c(Br)cccc12 [Example 15]
% Lowering dulcitol accumulation IN VIVO (%)L ([1]; 112 mg/kg): N.S. | % Lowering dulcitol accumulation IN VIVO (%)N ([2]; 112 mg/kg): N.S. | % Lowering dulcitol accumulation IN VIVO (%)D ([3]; 112 mg/kg): N.S.

inhibition at 10 µM (aldose reductase; 10^-5 M): 83% | inhibition at 1 µM (aldose reductase; 10^-6 M): 58% | inhibition at 0.1 µM (aldose reductase): 10%
Compound: O=C(O)CN(C(=O)c1ccccc1)C(=O)c1cccc2c(Br)cccc12 [Example 16]
% Lowering dulcitol accumulation IN VIVO (%)L ([1]; 111 mg/kg): N.S. | % Lowering dulcitol accumulation IN VIVO (%)N ([2]; 111 mg/kg): N.S. | % Lowering dulcitol accumulation IN VIVO (%)D ([3]; 111 mg/kg): N.S.

inhibition at 10 µM (aldose reductase; 10^-5 M): 23% | inhibition at 1 µM (aldose reductase; 10^-6 M): 4% | % Inhibition IN VITRO (aldose reductase): N.S.
Compound: CN(C)C(=O)N(CC(=O)O)C(=O)c1cccc2c(Br)cccc12 [Example 17]

Further lines, the compound ahead of its results:

Compound: COc1ccc2c(C(=O)N(CC(=O)O)C(=O)OCc3ccccc3)cccc2c1C(F)(F)F
inhibition at 10 µM (aldose reductase; 10^-5 M): 95% | inhibition at 1 µM (aldose reductase; 10^-6 M): 89% | inhibition at 0.1 µM (aldose reductase): 66% | % Lowering dulcitol accumulation IN VIVO (%)L ([1]; 67 mg/kg): N.S. | % Lowering dulcitol accumulation IN VIVO (%)N ([2]; 67 mg/kg): N.S. | % Lowering dulcitol accumulation IN VIVO (%)D ([3]; 67 mg/kg): N.S.

Compound: CCOC(=O)N(CC(=O)O)C(=O)c1cccc2c(C(F)(F)F)c(OC)ccc12 [Example 1, N-[[6-Methoxy-5-(trifluoromethyl)-1-naphthalenyl]carbonyl]-N-[(ethoxy)carbonyl]glycine]
inhibition at 10 µM (aldose reductase; 10^-5 M): 97% | inhibition at 0.1 µM (aldose reductase): 47% | inhibition at 1 µM (aldose reductase): 94% | % Lowering dulcitol accumulation IN VIVO (%)N ([2]; 57 mg/kg): 56% | % Lowering dulcitol accumulation IN VIVO (%)N ([2]; 97 mg/kg): 90% | results compared with tolrestat (rats fed galactose; 57 mg/kg/day versus tolrestat at 9 mg/kg/day): comparable results

Compound: COC(=O)N(CC(=O)O)C(=O)c1cccc2c(C(F)(F)F)c(OC)ccc12 [Example 2, N-[[6-Methoxy-5-(trifluoromethyl)-1-naphthalenyl]carbonyl]-N-[(methoxy)carbonyl]glycine]
inhibition at 10 µM (aldose reductase; 10^-5 M): 98% | inhibition at 1 µM (aldose reductase; 10^-6 M): 97% | inhibition at 0.1 µM (aldose reductase): 82% | % Lowering dulcitol accumulation IN VIVO (%)L ([1]; 48 mg/kg): N.S. | % Lowering dulcitol accumulation IN VIVO (%)N ([2]; 48 mg/kg): 70% | results compared with tolrestat (rats fed galactose; 48 mg/kg/day versus tolrestat at 9 mg/kg/day): comparable results

Compound: CCCOC(=O)N(CC(=O)O)C(=O)c1cccc2c(C(F)(F)F)c(OC)ccc12 [Example 3]
inhibition at 0.04 µM (aldose reductase; 4 × 10^-8 M): 48% | inhibition at 10 µM (aldose reductase; 10^-5 M): 95% | inhibition at 1 µM (aldose reductase; 10^-6 M): 90% | inhibition at 0.1 µM (aldose reductase): 81% | % Lowering dulcitol accumulation IN VIVO (%)L ([1]; 48 mg/kg): N.S. | % Lowering dulcitol accumulation IN VIVO (%)N ([2]; 48 mg/kg): N.S. | % Lowering dulcitol accumulation IN VIVO (%)D ([3]; 48 mg/kg): N.S.

Compound: COc1ccc2c(C(=O)N(CC(=O)O)C(=O)OC(C)C)cccc2c1C(F)(F)F [Example 4]
% Lowering dulcitol accumulation IN VIVO (%)L ([1]; dose not given (N.S.)): N.S. | % Lowering dulcitol accumulation IN VIVO (%)N ([2]; dose not given (N.S.)): N.S. | % Lowering dulcitol accumulation IN VIVO (%)D ([3]; dose not given (N.S.)): N.S.

Compound: COc1ccc2c(C(=O)N(C=O)CC(=O)O)cccc2c1C(F)(F)F [Example 8, N-Fromyl-N-[[6-methoxy-5-(trifluoromethyl)-1-naphthalenyl]carbonyl]glycine]
inhibition at 10 µM (aldose reductase; 10^-5 M): 95% | inhibition at 0.1 µM (aldose reductase): 89% | inhibition at 1 µM (aldose reductase): 96% | % Lowering dulcitol accumulation IN VIVO (%)N ([2]; 107 mg/kg): 51%

Compound: COc1ccc2c(C(=O)N(CC(=O)O)C(C)=O)cccc2c1C(F)(F)F [Example 9]
inhibition at 1 µM (aldose reductase; 10^-6 M): 91% | inhibition at 0.1 µM (aldose reductase): 61% | inhibition at 10 µM (aldose reductase): 96% | % Lowering dulcitol accumulation IN VIVO (%)L ([1]; 100 mg/kg): N.S. | % Lowering dulcitol accumulation IN VIVO (%)N ([2]; 100 mg/kg): 36%

Compound: COC(=O)N(CC(=O)O)C(=S)c1cccc2c(C(F)(F)F)c(OC)ccc12 [Example 18a, N-[[6-Methoxy-5-(trifluoromethyl)-1-naphthalenyl]thioxomethyl]-N-[(methoxy)carbonyl]glycine]
inhibition at 1 µM (aldose reductase; 10^-6 M): 88% | inhibition at 0.1 µM (aldose reductase): 29% | inhibition at 10 µM (aldose reductase): 94% | % Lowering dulcitol accumulation IN VIVO (%)L ([1]; 51 mg/kg): N.S. | % Lowering dulcitol accumulation IN VIVO (%)N ([2]; 51 mg/kg): N.S.

Compound: COc1ccc2c(C(=S)N(C)CC(=O)O)cccc2c1C(F)(F)F [Example 18b, N-[[6-methoxy-5-(trifluoromethyl)-1-napthalenyl]thioxomethyl]-N-methyglycine, reference compound]
% Lowering dulcitol accumulation IN VIVO (%)L ([1]; 9 mg/kg): N.S.
